Source: patent EP0533926A1, “[…]” (NIPPON SHINYAKU COMPANY, LIMITED, priority 1990, dated 1991)

Test system: human platelet aggregation
Experiment: Inhibitory effect on human platelet aggregation (collagen-induced, PRP, absorbance at 660 nm)
Assay type: cell-based
Details: concentration of collagen 2 µg/ml, 37 °C, read-out: percent inhibition of platelet aggregation (%); for inhibition at 10 µM: test drug 10 µM; for inhibition at 100 µM: test drug 100 µM
Method: Inhibitory effect on human platelet aggregation
Using a syringe filled with 2.5 ml of sodium citrate solution (Citrate for erythrocyte sedimentation test (Kokusai) distributed by Green Cross Corporation) beforehand, human blood was collected in a total quantity of 25 ml and stirred well. The blood was then centrifuged at 200× g for 10 minutes and the supernatant was recovered as a PRP (platelet-rich plasma).
Horse tendon collagen [HORMON-CHEMIE MÜNCHEN GMBH, collagen reagent (Holm)] was previously diluted to 10 and 20 µg /ml with the accompanying buffer.
Each test drug was diluted with PBS and its concentration (mM) was estimated from ultraviolet absorption.
The assay for platelet aggregation was carried out with NKK HEMA TRACER 1 (Nikko Bioscience). The cell was filled with 0.2 ml of PRP and 0.025 ml of the test drug solution and the absorbance was measured at a constant temperature of 37 °C. Then, 0.025 ml of the above collagen solution was added and the absorbance was measured (wavelength 660 nm). The percent inhibition of platelet aggregation (%) was calculated by means of the following equation. [formula] [ ] represents the absorbance.

Structure (SMILES) | inhibition at 10 µM [%] | inhibition at 100 µM [%]
Nc1nc2c(nc(Br)n2[C@@H]2O[C@@H]3COP(=O)(O)O[C@H]3[C@H]2O)c(=O)[nH]1 [Example 8-Br-c-GMP, 8-bromocyclic GMP] | 2.9 | 49
Nc1nc2c(ncn2[C@@H]2O[C@@H]3COP(=O)(O)O[C@H]3[C@H]2O)c(=O)[nH]1 [c-GMP, cyclic GMP] | 4 | 23
